Like-named read-outs stand apart in the source and are kept apart here.
How the values were obtained:
w794 duplex DNA = assay: DNA alkylation selectivity and efficiency (thermally-induced strand cleavage); type: biochemical
Description: FIG. 1 illustrates the results of an electrophoresis gel with 8% denaturing PAGE and autoradiography. Thermally-induced strand cleavage of w794 DNA; DNA-agent incubation at 4° C. for 18 hours, removal of unbound agent by EtOH precipitation, and 30 minutes of thermolysis (100° C.) followed by 8% denaturing PAGE and autoradiography. Lane 1, control DNA; lanes 2-5, Sanger G, C, A, and T sequencing reactions; lanes 6-8, 2 (1×10^−4 to 1×10^−6); lanes 9-11, 10 (1×10^−1 to 1×10^−3); lanes 12-14, 4 (1×10^−1 to 1×10^−3), lanes 15-17, 9 (1×10^−1 to 1×10^−3).
The DNA alkylation properties of 4 were examined alongside the parent drug CBI-TMI (2), and the two control standards 9 and 10 (incapable of spirocyclization) within w794 duplex DNA (Boger, D. L.; et al. Tetrahedron 1991, 47, 2661) for which results for an extensive series of duocarmycin analogues have been reported. The sites of DNA alkylation and its efficiency were directly assessed by thermally-induced singly 5′ end-labeled duplex DNA strand cleavage following incubation with the agents ([…], natural enantiomers examined).
The DNA alkylation reactions were performed by treatment of 4.5 μL of singly ^32P 5′-end-labeled double-stranded w794 DNA (Boger, D. L.; et al. Tetrahedron 1991, 47, 2661) in TE buffer (10 mM Tris, 1 mM EDTA, pH 7.6) with 0.5 μL of agent in EtOH (at the specified concentration). […] Unbound agent was removed by EtOH precipitation of DNA (0.5 μL of 3.0 M sodium acetate and 12.5 μL of cold absolute EtOH) and the solutions were stored at −78° C. for 1 hour or longer. The DNA was pelleted by centrifugation at 4° C. (13000 rpm, 25 minutes), dried in a Savant Speed Vac concentrator, and resuspended in 5 μL of TE buffer (pH 7.6). Thermal depurination (3×10 minutes at 100° C.) was performed and then 2.5 μL of formamide dye solution was added to the cooled samples. Thermally denatured samples were assayed by gel electrophoresis [8% denaturing gel with 8 M urea in TBE buffer (89 mM Tris-borate, 2 mM EDTA)] followed by autoradiography of the dried gel using Kodak BIOMAX XAR film and a Picker Spectra™ intensifying screen.

[1] = system: L1210 cell line (mouse leukemia); assay: Cytotoxic activity, L1210 cell line; type: cell-based
Description: (§1) The O-amino phenol derivatives bearing the N—O prodrug linkages and the various N-acyl substituents were assayed for cytotoxic activity alongside the parent drugs CBI-TMI (2) (Boger, D. L.; Yun, W. J. Am. Chem. Soc. 1994, 116, 7996) and mitomycin C (Boger, D. L.; et al. Bioorg. Med. Chem. Lett. 1991, 1, 115; Boger, D. L.; et al. Bioorg. Med. Chem. 1995, 3, 1429) as well as the two control standards 9 and 10 incapable of free phenol release. Three cell lines were examined including a standard L1210 cell line (mouse leukemia) as well as the mitomycin-sensitive (H460, expresses high levels of DT-Diaphorase) and resistant (H596, lacks DT-Diaphorase) non small cell lung cancer (NSCLC) cell lines, with results shown in the Table below.

[2] = Stability in human plasma; type: in vitro ADME; details: 50 μg/100 μL, 10% DMSO, release of free drug 2
[3] = Chemical stability and reactivity of the N-acyl O-amino phenol derivatives; type: physicochemical
[4] = system: H596 (mitomycin-resistant, lacks DT-Diaphorase) non small cell lung cancer (NSCLC) cell line; assay: Cytotoxic activity, H596 cell line; type: cell-based; details: Homo sapiens, NCI-H596, read-out: IC50 (nM) H596
Description: as §1

[5] = Stability in pH 7.0 phosphate buffer; type: physicochemical; details: HPLC, UV; monitored 72 hours
[6] = system: H460 (mitomycin-sensitive, expresses high levels of DT-Diaphorase) non small cell lung cancer (NSCLC) cell line; assay: Cytotoxic activity, H460 cell line; type: cell-based; details: for IC50: Homo sapiens, NCI-H460, read-out: IC50 (nM) H460
Description: as §1

[7] = Mus musculus, L1210, read-out: IC50 (nM) L1210, natural enantiomer series, CBI-TMI derivatives

| Compound | DNA alkylation efficiency, reduction relative to CBI-TMI (2) (w794 duplex DNA; w794 DNA, 4° C., 18 hours, natural enantiomers) | DNA alkylation sequence selectivity (w794 duplex DNA; w794 DNA, compared with CBI-TMI (2)) | IC50 [1, 7] | fold less potent than 2 ([1]; against L1210, natural enantiomer) | half-life [2] | stability to treatment with BnSH in MeOH with NaHCO3 ([3]; BnSH in MeOH, NaHCO3, 2 hours, 23° C.) | stability to treatment with BnSH ([3]; BnSH in THF (2-72 hours, 23° C.) or MeOH (2-72 hours, 23° C.)) | stability to treatment with BnSH in THF with insoluble NaHCO3 ([3]; BnSH in THF, insoluble NaHCO3, 2 hours, 23° C.) | stability in MeOH ([3]; MeOH) | stability to NaHCO3 or Na2CO3 in MeOH ([3]; NaHCO3 or Na2CO3 in MeOH, 2 hours, 23° C.) | stability to acidic conditions ([3]; TFA-CH2Cl2, 4 N HCl-EtOAc) | stability on long term storage ([3]; storage) | IC50 [4] | stability in pH 7.0 phosphate buffer [5] | IC50 [6] | potency compared with 2 ([6]; against H460/H596) | DNA alkylation under forcing conditions (w794 duplex DNA; 37° C., 18 hours, data not shown) | observable DNA alkylation (w794 duplex DNA; w794 DNA, 4° C., 18 hours) | DNA alkylation relative to that of 2 (w794 duplex DNA; w794 DNA, natural enantiomers) | IC50 ([1]; read-out: IC50 (nM) L1210, natural enantiomer series, CBI-TMI derivatives) |
| --- | --- | --- | --- | --- | --- | --- | --- | --- | --- | --- | --- | --- | --- | --- | --- | --- | --- | --- | --- | --- |
| COc1cc2cc(C(=O)N3C[C@@H](CCl)c4c3cc(ONC(=O)OC(C)(C)C)c3ccccc43)[nH]c2c(OC)c1OC [Compound 4] | 1,000-10,000 fold | identical sequence selectivity | 0.5 nM | 10 fold | 3 h | cleaved to release 2 | stable | stable | stable | 2 was released slowly | surprisingly robust to acidic conditions | withstanding even long term storage effectively | 6 nM | no significant cleavage of the prodrug was observed | 1 nM | essentially equipotent | – | – | – | – |
| COc1cc2cc(C(=O)N3C[C@@H](CCl)c4c3ccc3ccccc43)[nH]c2c(OC)c1OC [Compound 9] | – | – | > 100 nM | – | – | – | – | – | – | – | – | – | > 100 nM | – | > 100 nM | – | no appreciable DNA alkylation | failed to exhibit significant observable DNA alkylation | – | – |
| COc1cc2cc(C(=O)N3C[C@@H](CCl)c4c3cc(OC)c3ccccc43)[nH]c2c(OC)c1OC [Compound 10] | – | – | > 100 nM | – | – | – | – | – | – | – | – | – | > 100 nM | – | > 100 nM | – | – | failed to exhibit significant observable DNA alkylation | < 0.01% | 50 nM |

From patent publication US8377981B2, “CBI derivatives subject to reductive activation” (The Scripps Research Institute, priority 2007, dated 2013)
